Patent US6126918A, “Screening assays to identify therapeutic agents for amyloidosis” (Imperial College Innovations Limited, priority 1993, dated 2000)
Where two headings read alike, the source gives them in different places. Each block holds one compound with its values, some of them ahead of it.

Columns and labels:
[1] = system: Alzheimer's disease β-protein fibrils; test: Pronase digestion of Alzheimer's disease β-protein fibrils, SDS-PAGE; format: biochemical; settings: for Digestion of β-protein: SAP 10 μg/ml, pronase 1 μg/ml, 1 hour at 37° C.
Description: Alzheimer's disease β-protein, prepared as a synthetic peptide containing residues 1-40 was obtained from California Peptide Research, and was dissolved in pure water at 4 mg/ml, that is 1 mM. Some was kept at 4° C. ("fresh") and some was aged by incubation at 37° C. for 7 days. It is known that fibrils form very slowly in the cold but that "ageing" is associated with marked amyloid fibril formation, and this was confirmed in the present case by Congo red staining and by direct electron microscopy.
(a) β-protein solutions obtained as described above were diluted to 0.2 mg/ml in TC immediately before use. Highly purified human SAP in solution in 138 mM NaCl, 10 mM Tris, pH 8.0 (TN) was diluted in TN to 0.1 mg/ml, 0.5 mg/ml and 2.5 mg/ml Pronase from S. griseus was obtained from Boehringer Mannheim and was freshly prepared at 0.04 and 0.004 mg/ml in TC just before use.
Aliquots, 50 μl, of aged or fresh β-protein were mixed with 20 μl volumes of TN alone or SAP at the different concentrations shown in FIG. 5 and with 5 μl of 10 mM CaCl2, and then incubated with shaking at 37° C. for 1 hour. TC alone or pronase in TC at 0.04 or 0.004 mg/ml were added in a volume of 25 μl and incubation continued for a further 1 hour at 37° C. Digestion was then stopped by addition of an equal volume of reducing SDS-PAGE sample buffer (20 mM Tris pH 8.0, 2 mM EDTA, 5% w/v SDS, 10% w/v 2-mercaptoethanol, 0.05% w/v bromophenol blue, 20% w/v glycerol) and boiling for 10 minutes. These samples were finally analysed in reduced SDS homogeneous 15% PAGE, stained with Brilliant blue R350. The proportion of the β-protein present in each track was estimated by scanning densitometry with reference to the no pronase control which was taken as 100%. The proportion digested was calculated by subtraction and plotted against the SAP concentration.
(d) Abrogation of protection by MOβDG: β-protein fibrils at 100 μg/ml were incubated for 1 hour at 37° C. with pronase at 1 μg/ml, in the presence or absence of SAP and with or without different concentrations of MOβDG. The extent of digestion of the β-protein was then estimated by SDS-PAGE analysis.

[2] = system: amyloid fibrils of AA, AL and apoAI type; test: Proteinase digestion of ex vivo amyloid fibrils (AA, AL, apoAI) in vitro; format: biochemical, human; settings: for Effect on fibril digestion by proteinases: protein added to incubation mixtures, 37° C.
[3] = system: AA amyloid fibrils; test: Trypsin or chymotrypsin digestion of AA amyloid fibrils, SDS-PAGE quantification of AA protein band; format: biochemical, human; settings: 6 hours at 37° C.
Description: (b) AA amyloid fibrils obtained ex vivo were incubated for 6 hours at 37° C. with trypsin or chymotrypsin at a substrate:enzyme ratio of 10:1 in the presence or absence of SAP and with or without MOβDG, according to the general protocol given above. The incubation mixtures were then analysed by Coomassie blue stained SDS-PAGE with quantification of the AA protein band. Intensity of this band after incubation without trypsin was taken as 100%.

[4] = biological target: T1, SAP (Homo sapiens, UniProt P02743); settings: neutral solutions in the presence of calcium ions; reference [44]; cited from earlier work
T1 construct: homopentamer, can form decamer; calcium-dependent ligand site
T1 sequence (P02743 20-223): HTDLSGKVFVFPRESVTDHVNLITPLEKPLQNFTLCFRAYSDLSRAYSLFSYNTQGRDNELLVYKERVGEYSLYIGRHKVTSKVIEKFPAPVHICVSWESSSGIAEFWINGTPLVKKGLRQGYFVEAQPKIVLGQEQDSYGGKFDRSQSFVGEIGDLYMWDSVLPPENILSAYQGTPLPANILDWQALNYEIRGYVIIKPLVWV

[5] = biological target: T1, SAP; test: Binding of DNA by SAP; settings: unpublished observations
Excerpt: SAP also binds polyanions such as heparan sulphate, dermatan sulphate and DNA [4] in the presence of calcium. […] There are several basic regions in SAP, for example Arg120, Arg77, His78, Lys79 and Arg57, which are on the same surface as the calcium and PE binding sites. It seems more likely that the phosphate backbone of DNA and the sulphated polysaccharides bind both at the calciums and at the basic sites, possibly on more than one subunit simultaneously. These extensive interactions probably account for the ability of SAP to displace from DNA the H1-type histones in chromatin [5]. The sequence differences in the basic regions and in the calcium binding region could explain the variable affinity for DNA shown by different pentraxins. Human CRP, for instance, only binds DNA at low, non-physiological ionic strength. […] Similar effects are observed for SAP binding to immobilised PE [unpublished observations]. As we can find no evidence for a second binding site for PE or MOβDG in the present experimental conditions, these effects must be mediated through inter-subunit interactions.

[6] = biological target: T2, SAP binding to AA type amyloid fibrils (Homo sapiens, UniProt P02743); test: Inhibition of SAP binding to amyloid fibrils (125I-SAP); settings: concentrations above about 2 mM in the final incubation mixture
T2 construct: isolated at greater than 99% purity from pooled human ascites and pleural effusion fluids; from tissue; host or cells: SAP from pooled human ascites and pleural effusion fluids; fibrils from patients' organs such as spleen
T2 sequence (P02743 20-223): as above
Description: Amyloid fibrils are isolated from the organs, such as the spleen, obtained post mortem from patients with amyloidosis of AA or AL type, using the water extraction method of Pras et al. This method is modified in that the initial saline homogenizations are conducted using Tris buffered saline containing 10 mM EDTA to ensure complete dissociation of all endogenous SAP [56]. The fibril-rich water extract is mixed with Tris buffered saline containing calcium chloride to bring the final salt concentration to 138 m NaCl, 10 mM Tris, 2 mM CaCl2, pH 8.0, and this is then centrifuged at 1500 g for 5 minutes to sediment the fibrils. These are then resuspended in Tris saline calcium buffer, pH 8.0, at the same concentration as above (TC buffer), so as to provide a suitable suspension, for example, A280 =0.255, A320 =0.132, and this is stored at 4° C. […] Agents to be tested are dissolved at a concentration of about 10 mM in TC, or in 1:10 DMSO in water or TC. If they are active in inhibiting SAP binding they are tested at a range of lower concentrations to determine the minimal inhibitory dose.
For the assay itself 10 μl of labelled SAP is mixed with 50 μl of amyloid fibril suspension and 40 μl of the test substance and incubated, with mixing, for 60 minutes at room temperature. […] The fibrils are washed with TC containing 1% w/v BSA and the radioactive SAP bound is measured. […]

[7] = biological target: T1, SAP; test: Calcium-dependent aggregation of SAP in neutral solution; settings: neutral solutions in the presence of calcium ions; unpublished observations
Excerpt: SAP rapidly aggregates in neutral solutions in the presence of calcium ions presumably due to intermolecular interactions involving the surface of the decamer with the exposed calcium binding site. […] Similarly they compete for the calcium site with Glu167 which is an important lattice contact in the pentamer crystals.

Digestion of β-protein ([1]; MOβDG 1.3 mM): 75%
Digestion of β-protein ([1]; MOβDG 6.7 mM): 85%
Digestion of β-protein ([1]; MOβDG 33.3 mM): 90%
Protection by SAP in the presence of MOβDG ([1]; β-protein amyloid fibrils with SAP): completely abrogated
Protective effect of SAP when MOβDG was included ([2]; MOβDG included in the incubation mixtures with SAP): completely abrogated
Effect on SAP binding to amyloid fibrils [6]: reduces binding to background levels
Compound: CO[C@@H]1O[C@@H]2CO[C@@](C)(C(=O)O)O[C@@H]2[C@H](O)[C@H]1O [MOβDG, methyl 4,6-O-(1-carboxyethylidene)-β-D-galactopyranoside]
% AA protein remaining ([3]; Chymotrypsin, SAP 50 μg/ml plus MOβDG 1 mM): 10%
% AA protein remaining ([3]; Trypsin, SAP 50 μg/ml plus MOβDG 1 mM): 5%
Inhibition of SAP aggregation [4]: can be inhibited
Effect on binding of DNA by SAP [5]: enhance the binding of DNA by SAP and compete with the interaction at high concentration

Compound: NCCOP(=O)(O)O [PE, phosphoethanolamine]
Inhibition of SAP aggregation [7]: can be inhibited
Effect on binding of DNA by SAP [5]: enhance the binding of DNA by SAP and compete with the interaction at high concentration

Compound: CRP: C-reactive protein, control protein that does not bind to amyloid fibrils
Effect on fibril digestion by proteinases [2]: had no effect on their digestion

Digestion of β-protein ([1]; MOβDG 0 mM): 60%
Compound: SAP: Serum amyloid P component, a normal human plasma protein; highly purified human SAP
Protection of β-protein amyloid fibrils from proteolysis ([1]; fibrils produced in vitro from synthetic β-protein): protected the β-protein amyloid fibrils from proteolysis
Effect on fibril digestion by proteinases [2]: greatly reduced fibril digestion
% AA protein remaining ([3]; Chymotrypsin, SAP 10 μg/ml, no MOβDG): 20%
% AA protein remaining ([3]; Chymotrypsin, SAP 50 μg/ml, no MOβDG): 60%
% AA protein remaining ([3]; Trypsin, SAP 10 μg/ml, no MOβDG): 20%
% AA protein remaining ([3]; Trypsin, SAP 50 μg/ml, no MOβDG): 50%
